The test deals with T1, Recombinant human cathepsin K (Homo sapiens, UniProt P43235).
T1 construct: made in house
T1 sequence (P43235 115-329): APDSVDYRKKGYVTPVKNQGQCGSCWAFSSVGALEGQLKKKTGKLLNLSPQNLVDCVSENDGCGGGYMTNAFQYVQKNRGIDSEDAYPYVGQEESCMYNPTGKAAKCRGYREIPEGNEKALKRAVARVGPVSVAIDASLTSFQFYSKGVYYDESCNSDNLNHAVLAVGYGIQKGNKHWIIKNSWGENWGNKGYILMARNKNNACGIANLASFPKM
In words: Inhibition of cathepsin K activity (Z-Phe-Arg-AMC fluorescence assay). In kind it is biochemical. Particulars: 25 uM Z-Phe-Arg-AMC, pH 5.5, 1 hour at 37° C. Here is the method: Test 1: Inhibition of Cathepsin K Activity
Recombinant human cathepsin K was prepared in accordance with Biol, Pharm. Bull, 19(8), 1026-1031 (1996) and J. Biol. Chem. 271, 2126-2132 (1996). Stock solutions of 2.5 mM Z-Phe-Arg-AMC (BACHEM, 1-1160) and all inhibitors were prepared in dimethyl sulfoxide. In vitro assays for cathepsin K were conducted with 25 uM Z-Phe-Arg-AMC as a substrate at pH 5.5 in 100 mM Na acetate buffer containing 20 mM cysteine and 5 mM EDTA in the presence of 2% final concentration of DMSO. Reaction was initiated by the addition of enzyme to samples, which were then incubated for 1 hour at 37° C. The fluorescence was monitored at 460 nm (excitation wavelength 360 nm) using fluorescence plate reader.
The concentrations of the test compounds, which inhibit 50% of cathepsin K activity, are represented as IC50 in Table 1.

pIC50: −log10 of the molar value.

In patent US7342027B2 (Yuhan Corporation, priority 2002, dated 2008) one finds IC50 data, which are given here for twelve molecules.

A word on the pIC50: it is the IC50 on a negative log10 scale, so that one unit is a factor of ten.

Regarding `CS(=O)(=O)c1c(F)cccc1N1CCC(NC(=O)C2(NC(=O)c3ccco3)CCCCC2)C(=O)C1` (stereo not drawn) [Example 77, 4-[N-[1-[N-(furan-2-ylcarbonyl)amino]cyclohexanecarbonyl]amino]-1-(3-fluoro-2-methylsulfonylphenyl)piperidin-3-one], the pIC50 is 8.22.

In the case of `CSc1cc(F)ccc1N1CCC(NC(=O)C2(NC(=O)c3ccco3)CCCCC2)C(=O)C1` (stereo not drawn) [Example 85, 4-[N-[1-[N-(furan-2-ylcarbonyl)amino]cyclohexanecarbonyl]amino]-1-(4-fluoro-2-thiomethoxyphenyl)piperidin-3-one], the pIC50 is 7.98.

As to `CC1(C)CN(c2cc(F)ccc2N2CCC(NC(=O)C3(NC(=O)c4ccco4)CCCCC3)C(=O)C2)C1=O` (stereo not drawn) [Example 92, 4-[N-[1-[N-(furan-2-ylcarbonyl)amino]cyclohexanecarbonyl]amino]-1-[4-fluoro-2-(3,3-dimethylazetidin-2-one-1-yl)phenyl]piperidin-3-one], the pIC50 is 8.84.

`O=C(NC1(C(=O)NC2CCN(c3ccc(F)cc3N3CCCC3=O)CC2=O)CCCCC1)c1ccco1` (stereo not drawn) [Example 95, 4-[N-[1-[N-(furan-2-ylcarbonyl)amino]cyclohexanecarbonyl]amino]-1-[4-fluoro-2-(pyrrolidin-2-one-1-yl)phenyl]piperidin-3-one]: the pIC50 is 7.97.

For `O=C(NC1(C(=O)NC2CCN(c3ccc(F)cc3-n3cccc3)CC2=O)CCCCC1)c1ccco1` (stereo not drawn) [Example 99, 4-[N-[1-[N-(furan-2-ylcarbonyl)amino]cyclohexanecarbonyl]amino]-1-[4-fluoro-2-(pyrrol-1-yl)phenyl]piperidin-3-one], the pIC50 was 8.36.

`Cc1cc(C(=O)NC2(C(=O)NC3CCN(c4ccccc4S(C)(=O)=O)CC3=O)CCCCC2)no1` (stereo not drawn) [Example 106, 4-[N-[1-[N-(5-methyl-isoxazol-3-ylcarbonyl)amino]cyclohexanecarbonyl]amino]-1-(2-methanesulfonylphenyl)piperidin-3-one]: the pIC50 was 7.70.

Take `CCS(=O)(=O)c1ccccc1N1CCC(NC(=O)C2(NC(=O)c3cc(C)on3)CCCCC2)C(=O)C1` (stereo not drawn) [Example 107, 4-[N-[1-[N-(5-methyl-isoxazol-3-ylcarbonyl)amino]cyclohexanecarbonyl]amino]-1-(2-ethanesulfonylphenyl)piperidin-3-one]: the pIC50 is 8.09.

For the molecule `CS(=O)(=O)c1ccccc1N1CCC(NC(=O)C2(NC(=O)c3ccc(Cl)s3)CCCCC2)C(=O)C1` (stereo not drawn) [Example 114, 4-[N-[1-[N-(5-chloro-thiophen-2-ylcarbonyl)amino]cyclohexanecarbonyl]amino]-1-(2-methanesulfonylphenyl)piperidin-3-one], the pIC50 was 8.71.

For the molecule `CC(C)S(=O)(=O)c1ccccc1N1CCC(NC(=O)C2(NC(=O)c3ccc(Cl)s3)CCCCC2)C(=O)C1` (stereo not drawn) [Example 116, 4-[N-[1-[N-(5-chloro-thiophen-2-ylcarbonyl)amino]cyclohexanecarbonyl]amino]-1-(2-isopropanesulfonylphenyl)piperidin-3-one], the pIC50 was 8.63.

For the molecule `CS(=O)(=O)c1ccc(F)cc1N1CCC(NC(=O)C2(NC(=O)c3ccc(Cl)s3)CCCCC2)C(=O)C1` (stereo not drawn) [Example 117, 4-[N-[1-[N-(5-chloro-thiophen-2-ylcarbonyl)amino]cyclohexanecarbonyl]amino]-1-(5-fluoro-2-methanesulfonylphenyl)piperidin-3-one], the pIC50 was 8.67.

`Cc1ccsc1C(=O)NC1(C(=O)NC2CCN(c3ccccc3S(C)(=O)=O)CC2=O)CCCCC1` (stereo not drawn) [Example 121, 4-[N-[1-[N-(3-methyl-thiophen-2-ylcarbonyl)amino]cyclohexanecarbonyl]amino]-1-(2-methanesulfonylphenyl)piperidin-3-one]: the pIC50 is 8.11.

For `Cc1occc1C(=O)NC1(C(=O)NC2CCN(c3ccccc3S(C)(=O)=O)CC2=O)CCCCC1` (stereo not drawn) [Example 122, 4-[N-[1-[N-(2-methyl-furan-3-ylcarbonyl)amino]cyclohexanecarbonyl]amino]-1-(2-methanesulfonylphenyl)piperidin-3-one], the pIC50 was 8.41.
